According to US10273266B2, “Multi-functional peptide benefiting expression, purification, stabilization and catalytic efficiency of recombinant proteins” (priority 2017, dated 2019):

Assays:
Type in all cases: biochemical
[1] = target: Pseudomonas aeruginosa BBE lipoxygenase (LOX, EC 1.13.11.12), wild-type, gene SEQ ID NO.6 (Pseudomonas aeruginosa, UniProt Q9I4G8); experiment: Lipoxygenase kinetics with linoleic acid, wild-type LOX; conditions: pH 7.5, 25° C., Value ± SD
Source text: (§1) The nucleotide sequence of PGL gene from Bacillus subtilis WSHB04-02 is shown as SEQ ID NO.4. The nucleotide sequence of LOX gene from Pseudomonas aeruginosa BBE is shown as SEQ ID NO.6. The nucleotide sequence of GFP gene from Aequorea victoria is shown as SEQ ID NO.8. E. coli JM109 was used as the host strain for cloning. E. coli BL21 (DE3) and E. coli Rosetta (DE3) were used as the expression hosts. The pET-22b (+) plasmid was used for expressing the recombinant proteins.
(§2) Linoleic acid was dispersed in 0.15 M K2HPO4—KH2PO4 buffer (pH 7.5). The substrate solution was freshly prepared daily and saturated with oxygen for 5 min before testing. Standard analytical mixture (3 mL) contains 0.3 mM linoleic acid and about 1.67 μg/mL enzyme. One unit of activity was defined as enzyme required to synthesis 1 μmol hydroperoxide per min at 25° C. Hydroperoxidaton was determined at 234 nm in a spectrophotometer (UV-2450; Shimadzu Co., Kyoto, Japan). The initial linear part of the wave was used to calculate enzyme activity.

[2] = target: Pseudomonas aeruginosa BBE lipoxygenase LOX-S1v1 (fused to self-assembling amphipathic peptide S1v1, […], SEQ ID NO.1), LOX gene SEQ ID NO.6 (Pseudomonas aeruginosa, UniProt Q9I4G8); experiment: Lipoxygenase kinetics with linoleic acid, LOX-S1v1
Source text: (§3) FIG. 1. (A) Genetic constructs of the His-tag fusion proteins; (B) Genetic constructs of the S1v1 fusion proteins. S1v1, AEAEAHAHAEAEAHAH; linker, PTPPTTPTPPTTPTPT; His-tag, HHHHHH; Enzymes represented the encoding gene of three proteins (pgl, lox and gfp, respectively) used in this study.
as §1, §2
(2) The LOX gene (shown in SEQ ID NO. 6) was cloned into the recombinant vector pET-22b(+)/S1v1 at the restriction NcoI and XhoI sites to construct a recombinant plasmid pET-22b(+)/lox-S1v1.

[3] = target: Pseudomonas aeruginosa BBE lipoxygenase LOX-His (His-tag HHHHHH fusion), gene SEQ ID NO.6 (Pseudomonas aeruginosa, UniProt Q9I4G8); experiment: Lipoxygenase kinetics with linoleic acid, LOX-His; conditions: pH 7.5, 25° C., Value ± SD
Source text: as §3, §1, §2

[4] = increase of LOX-S1v1 than that of the wild-type LOX
[5] = linoleic acid, LOX-S1v1, pH 7.5, 25° C., Value ± SD

Sequence of Pseudomonas aeruginosa BBE lipoxygenase LOX-S1v1 (fused to self-assembling amphipathic peptide S1v1, […], SEQ ID NO.1), LOX gene SEQ ID NO.6 (Q9I4G8 20-685, added parts left off): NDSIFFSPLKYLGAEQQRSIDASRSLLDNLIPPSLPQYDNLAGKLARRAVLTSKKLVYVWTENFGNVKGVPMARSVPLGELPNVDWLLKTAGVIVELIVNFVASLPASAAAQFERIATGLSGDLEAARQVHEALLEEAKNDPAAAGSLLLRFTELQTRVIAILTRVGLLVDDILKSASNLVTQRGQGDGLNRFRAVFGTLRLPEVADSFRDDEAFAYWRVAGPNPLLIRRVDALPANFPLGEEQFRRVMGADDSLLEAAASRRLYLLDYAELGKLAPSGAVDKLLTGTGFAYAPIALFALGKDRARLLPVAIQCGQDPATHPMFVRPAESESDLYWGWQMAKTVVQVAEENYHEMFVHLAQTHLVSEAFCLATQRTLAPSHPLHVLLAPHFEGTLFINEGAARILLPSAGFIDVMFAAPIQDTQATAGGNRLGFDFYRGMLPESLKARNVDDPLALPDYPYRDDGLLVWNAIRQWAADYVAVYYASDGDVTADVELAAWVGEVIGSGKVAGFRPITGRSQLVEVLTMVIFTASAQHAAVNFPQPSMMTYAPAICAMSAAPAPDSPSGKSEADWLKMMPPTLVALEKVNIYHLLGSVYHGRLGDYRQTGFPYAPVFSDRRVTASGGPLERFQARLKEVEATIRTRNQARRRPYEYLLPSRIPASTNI
Sequence of Pseudomonas aeruginosa BBE lipoxygenase LOX-His (His-tag HHHHHH fusion), gene SEQ ID NO.6 (Q9I4G8 19-685, looked up, natural form): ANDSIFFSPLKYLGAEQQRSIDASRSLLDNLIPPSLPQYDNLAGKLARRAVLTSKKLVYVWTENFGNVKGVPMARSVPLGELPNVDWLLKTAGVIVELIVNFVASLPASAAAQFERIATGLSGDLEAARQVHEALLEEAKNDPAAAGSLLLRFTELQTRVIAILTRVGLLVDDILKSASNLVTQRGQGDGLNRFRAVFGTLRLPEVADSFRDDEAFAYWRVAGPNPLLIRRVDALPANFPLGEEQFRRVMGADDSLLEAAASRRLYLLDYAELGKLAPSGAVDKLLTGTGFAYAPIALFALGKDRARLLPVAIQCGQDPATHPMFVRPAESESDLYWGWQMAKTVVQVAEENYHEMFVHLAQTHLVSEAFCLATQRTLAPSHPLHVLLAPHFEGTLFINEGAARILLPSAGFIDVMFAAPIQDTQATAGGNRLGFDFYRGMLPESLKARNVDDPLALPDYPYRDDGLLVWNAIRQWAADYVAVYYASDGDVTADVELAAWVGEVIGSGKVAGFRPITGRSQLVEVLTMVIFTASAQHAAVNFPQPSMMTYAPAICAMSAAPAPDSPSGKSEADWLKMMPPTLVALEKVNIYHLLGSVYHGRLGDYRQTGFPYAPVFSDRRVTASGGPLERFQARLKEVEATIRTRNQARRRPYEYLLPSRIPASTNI
Sequence of Pseudomonas aeruginosa BBE lipoxygenase (LOX, EC 1.13.11.12), wild-type, gene SEQ ID NO.6 (Q9I4G8 19-685, looked up, natural form): as above

CCCCC/C=C\C/C=C\CCCCCCCC(=O)O [linoleic acid, Linoleic acid]
Km [1]: 57 ± 1.2 µM
kcat [1]: 24.77 ± 0.97 S^−1
Km value (in words) ([2]; fusion enzymes compared with wild-types, decrease in substrate affinity after S1v1 peptide fusion): higher Km value
catalytic efficiencies (kcat/Km) increase [2, 4]: 1.3 fold
kcat value increase [2, 4]: 2.4 fold
Km [2, 5]: 83 ± 2 µM
kcat [2, 5]: 83.2 ± 3.25 S^−1
Km [3]: 55 ± 2 µM
kcat [3]: 25.21 ± 1.02 S^−1
